US20100160335A1, “PYRIDAZINONE DERIVATIVE AND PDE INHIBITOR CONTAINING THE SAME AS ACTIVE INGREDIENT” (KYORIN PHARMACEUTICAL CO., LTD., priority 2007, published 2010)
Like-named read-outs stand apart in the source and are kept apart here.

Experiments:
[1] = tested on: LPS acute inflammation model in rats; assay: LPS acute inflammation model in rats (total leukocytes in BALF); assay type: in vivo; conditions: BALF 3 hours after LPS; for inhibition in vivo at 1 mg/kg: Rattus norvegicus, Leukocyte, po, 3 h, read-out: Inhibition rate (total number of leukocytes in BALF)
Method: 1 mg/kg of the compound was orally administered to rat one hour before inhalation of a lipopolysaccharide from E. coli serotype 055:B5 (LPS), and the rat was made to inhale 50 mL of the LPS solution nebulized using a nebulizer for 30 minutes. Then, 3 hours after the LPS inhalation, the rat was euthanized with 20% urethane (5 ml/rat, i.p.). 5 ml of physiological saline for bronchoalveolar lavage was injected into the bronchial tubes and alveoli through the airway, and the bronchial tubes and alveoli were washed three times using a 5 mL syringe. This operation was repeated twice, and the solution was collected as bronchoalveolar lavage fluid (BALF). The collected BALF was centrifuged at 1200 rpm and 4° C. for 10 minutes (Hirtachi; himac CR 5 DL). The pellet was re-suspended in 10 mL of a 0.1% bovine serum albumin-physiological saline, and an equivalent amount of Turk's solution was added thereto to stain leukocytes. The total number of leukocytes was counted under a microscope to calculate the inhibition rate. Further, the indications were as follows: inhibition rate≧90% (++) and 90%>inhibition rate≧50% (+). [ ] means the results of the drug administration after fasting overnight.

PDE4Bcat = target: T1, PDE4Bcat (Homo sapiens, UniProt Q07343); assay: Phosphodiesterase inhibitory activity, PDE4 ([3H]cAMP, recombinant enzyme); assay type: biochemical; conditions: 30° C., 20 minutes, read-out: IC50(μmol/L) PDE4
T1 construct: made in house; host or cells: Sf9 insect cells (baculovirus, Bac-to-Bac / Gateway)
T1 sequence (Q07343 330-659 limits assumed): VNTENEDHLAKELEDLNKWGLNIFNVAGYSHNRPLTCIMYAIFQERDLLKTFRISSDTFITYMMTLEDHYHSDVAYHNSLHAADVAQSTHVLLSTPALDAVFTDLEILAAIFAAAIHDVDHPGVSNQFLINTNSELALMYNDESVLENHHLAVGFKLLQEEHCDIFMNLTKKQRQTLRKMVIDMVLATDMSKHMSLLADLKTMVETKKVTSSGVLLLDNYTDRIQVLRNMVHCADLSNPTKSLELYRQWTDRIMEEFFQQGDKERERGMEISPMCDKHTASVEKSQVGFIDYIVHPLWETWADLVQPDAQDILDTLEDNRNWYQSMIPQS

[2] = target: T2, PDE3A catalytic domain (PDE3Acat) (Homo sapiens, UniProt Q14432); assay: Phosphodiesterase inhibitory activity, PDE3 ([3H]cAMP, recombinant enzyme); assay type: biochemical; conditions: 30° C., 20 minutes, read-out: IC50(μmol/L) PDE3
T2 construct: made in house; host or cells: Sf9 insect cells (baculovirus, Bac-to-Bac / Gateway)
T2 sequence (Q14432 674-1093 limits assumed): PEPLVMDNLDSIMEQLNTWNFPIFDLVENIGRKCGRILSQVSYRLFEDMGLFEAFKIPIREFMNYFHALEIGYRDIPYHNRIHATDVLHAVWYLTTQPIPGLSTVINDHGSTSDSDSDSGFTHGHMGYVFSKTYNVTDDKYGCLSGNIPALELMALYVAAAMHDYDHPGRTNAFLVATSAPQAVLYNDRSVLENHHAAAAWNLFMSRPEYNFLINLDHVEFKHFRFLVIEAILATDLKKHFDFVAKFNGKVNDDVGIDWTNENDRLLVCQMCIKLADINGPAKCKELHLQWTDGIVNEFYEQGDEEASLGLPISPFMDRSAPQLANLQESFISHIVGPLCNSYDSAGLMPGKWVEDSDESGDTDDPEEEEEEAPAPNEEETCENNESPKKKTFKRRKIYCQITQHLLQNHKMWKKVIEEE

[3] = tested on: histamine-induced bronchoconstriction in guinea pigs; assay: Histamine-induced bronchoconstriction reaction in guinea pigs; assay type: in vivo; conditions: Cavia porcellus, iv, 0.5 min, guinea pig, measured 30 seconds after administration, read-out: Inhibition rate (histamine-induced bronchoconstriction); for inhibition in vivo at 0.1 mg/kg: compound 0.1 mg/kg, i.v. (values in [ ]); for inhibition in vivo at 0.3 mg/kg: compound 0.3 mg/kg, i.v.
Method: Guinea pigs were anesthetized with pentobarbital (30 mg/kg, i.p.). A cannula for intravenous administration was inserted into the left external jugular vein, a cannula for collecting blood and measuring blood pressure was inserted into the right internal carotid artery, and a tracheal cannula was inserted into the trachea. The guinea pigs were maintained on artificial respiration under the conditions of 60 times/min and 10 mL/kg/stroke. The airflow from the side branch of the tracheal cannula was measured by a bronchospasm transducer (Ugo-Basile) and recorded on a computer via Power Lab (ADInstruments Japan). The guinea pigs were immobilized with gallamine (10 mg/kg, i.v.), and histamine (12.5 μg/kg, i.v.) was administered at 10-minute intervals. After the histamine-induced bronchoconstriction became stable, the compound (0.3 mg/kg, i.v.) was administered. The histamine-induced bronchoconstriction reaction was measured 30 seconds after the compound administration to examine the bronchoconstriction inhibitory activity of the compound. The bronchoconstriction was recorded as the airflow value, and the results were represented by the ratio of the maximum value of the histamine- induced airflow 30 seconds after the administration to the maximum value of the airflow before the administration. Also, the test compounds dissolved in DMSO were used. Further, the indications were as follows: inhibition rate≧90% (+++), 90%>inhibition rate≧80% (++), and 80%>inhibition rate≧70% (+). [ ] means the results in the case of 0.1 mg/kg, i.v.

Row | Compound | IC50 (PDE4Bcat) [µmol/L] | IC50 [2] [µmol/L] | inhibition in vivo at 1 mg/kg ([1]; 1 mg/kg orally one hour before LPS inhalation) [%] | Inhibition rate (total number of leukocytes in BALF) ([1]; rat, 1 mg/kg orally after fasting overnight (values in [ ]), one hour before LPS inhalation, 1 mg/kg) | inhibition in vivo at 1 mg/kg ([1]; 1 mg/kg orally after fasting overnight (values in [ ]), one hour before LPS inhalation) [%] | inhibition in vivo at 0.1 mg/kg [3] [%] | inhibition in vivo at 0.3 mg/kg [3] [%]
1 | CCc1ccc2c(-c3ccc(=O)n(CCCCOc4ccc(C5=NNC(=O)CC5C)c(F)c4F)n3)ccc(OC)c2n1 (single isomer, unassigned; (+)) [Example 322, (+)-6-(2-ethyl-8-methoxyquinolin-5-yl)-2-[4-[2,3-difluoro-4-(4-methyl-6-oxo-1,4,5,6-tetrahydropyridazin-3-yl)phenoxy]butyl]-2H-pyridazin-3-one] | < 0.1 | < 0.1 | – | [+] (90%>inhibition rate≧50% (+)) | – | – | –
2 | CCc1ccc2c(-c3ccc(=O)n(CCCCOc4ccc(C5=NNC(=O)CC5)c(F)c4F)n3)ccc(OC)c2n1 [Example 283, 6-(2-Ethyl-8-methoxyquinolin-5-yl)-2-[4-[2,3-difluoro-4-(6-oxo-1,4,5,6-tetrahydropyridazin-3-yl)phenoxy]butyl]-2H-pyridazin-3-one] | 0.1 to 1 | < 0.1 | – | – | ≥ 90 | – | –
3 | CCc1ccc2c(C3=NN(CCCCOc4ccc(C5=NNC(=O)C5(C)C)cc4OC)C(=O)CC3C)ccc(OC)c2n1 (stereo not drawn) [Example 301, 6-(2-Ethyl-8-methoxyquinolin-5-yl)-5-methyl-2-[4-[2-methoxy-4-(4,4-dimethyl-5-oxo-4,5-dihydro-1H-pyrazol-3-yl)phenoxy]butyl]-4,5-dihydro-2H-pyridazin-3-one] | 0.1 to 1 | ≥ 10 | – | – | – | – | 80 to 90
4 | CCc1ccc2c(C3=NN(CCCCOc4ccc(C5=NNC(=O)C5(C)C)c(F)c4F)C(=O)CC3C)ccc(OC)c2n1 (stereo not drawn) [Example 303, 6-(2-Ethyl-8-methoxyquinolin-5-yl)-5-methyl-2-[4-[2,3-difluoro-4-(4,4-dimethyl-5-oxo-4,5-dihydro-1H-pyrazol-3-yl)phenoxy]butyl]-4,5-dihydro-2H-pyridazin-3-one] | < 0.1 | 0.1 to 1 | – | – | – | – | 80 to 90
5 | COc1ccc(-c2ccc(=O)n(CCCCOc3ccc(C4=NNC(=O)CC4C)c(F)c3F)n2)c2nc(C(F)(F)F)nn12 (stereo not drawn) [Example 304, 2-[4-[2,3-Difluoro-4-(4-methyl-6-oxo-1,4,5,6-tetrahydropyridazin-3-yl)phenoxy]butyl]-6-(5-methoxy-2-trifluoromethyl-[1,2,4]triazolo [1,5-a]pyridin-8-yl)-2H-pyridazin-3-one] | 1 to 10 | < 0.1 | – | – | – | – | ≥ 90
6 | COc1ccc(-c2ccc(=O)n(CCCCOc3ccc(C4=NNC(=O)CC4)c(F)c3F)n2)c2nc(C(F)(F)F)nn12 [Example 305, 2-[4-[2,3-Difluoro-4-(6-oxo-1,4,5,6-tetrahydropyridazin-3-yl)phenoxy]butyl]-6-(5-methoxy-2-trifluoromethyl-[1,2,4]triazolo[1,5-a]pyridin-8-yl)-2H-pyridazin-3-one] | 1 to 10 | 0.1 to 1 | – | – | – | – | ≥ 90
7 | COc1ccc(-c2ccc(=O)n(CCCCOc3ccc(C4=NNC(=O)CC4C)cc3)n2)c2cccnc12 (stereo not drawn) [Example 318, 6-(8-Methoxyquinolin-5-yl)-2-[4-[4-(4-methyl-6-oxo-1,4,5,6-tetrahydropyridazin-3-yl)phenoxy]butyl]-2H-pyridazin-3-one] | 0.1 to 1 | < 0.1 | – | – | – | – | ≥ 90

More lines, main results first:

Row | IC50 (PDE4Bcat) [µmol/L] | IC50 [2] [µmol/L] | Compound | inhibition in vivo at 1 mg/kg ([1]; 1 mg/kg orally one hour before LPS inhalation) [%] | Inhibition rate (total number of leukocytes in BALF) ([1]; rat, 1 mg/kg orally after fasting overnight (values in [ ]), one hour before LPS inhalation, 1 mg/kg) | inhibition in vivo at 1 mg/kg ([1]; 1 mg/kg orally after fasting overnight (values in [ ]), one hour before LPS inhalation) [%] | inhibition in vivo at 0.1 mg/kg [3] [%] | inhibition in vivo at 0.3 mg/kg [3] [%]
8 | < 0.1 | 1 to 10 | CCc1ccc2c(C3=NN(CCCCOc4ccc(C5=NNC(=O)CC5C)cc4)C(=O)CC3C)ccc(OC)c2n1 (single isomer, unassigned) [Example 339, 6-(2-Ethyl-8-methoxyquinolin-5-yl)-5-methyl-2-[4-[4-(4-methyl-6-oxo-1,4,5,6-tetrahydropyridazin-3-yl)phenoxy]butyl]-4,5-dihydro-2H-pyridazin-3-one] | 50 to 90 | – | – | – | –
9 | < 0.1 | < 0.1 | CCc1ccc2c(C3=NN(CCCCOc4ccc(C5=NNC(=O)CC5C)cc4F)C(=O)CC3C)ccc(OC)c2n1 (stereo not drawn) [Example 294, 6-(2-Ethyl-8-methoxyquinolin-5-yl)-5-methyl-2-[4-[2-fluoro-4-(4-methyl-6-oxo-1,4,5,6-tetrahydropyridazin-3-yl)phenoxy]butyl]-4,5-dihydro-2H-pyridazin-3-one] | – | – | – | ≥ 90 | –
10 | < 0.1 | < 0.1 | CCc1ccc2c(C3=NN(CCCCOc4ccc(C5=NNC(=O)CC5C)c(F)c4F)C(=O)CC3C)ccc(OC)c2n1 (stereo not drawn) [Example 295, 6-(2-Ethyl-8-methoxyquinolin-5-yl)-5-methyl-2-[4-[2,3-difluoro-4-(4-methyl-6-oxo-1,4,5,6-tetrahydropyridazin-3-yl)phenoxy]butyl]-4,5-dihydro-2H-pyridazin-3-one] | – | – | – | 80 to 90 | –
11 | < 0.1 | 1 to 10 | CCc1ccc2c(C3=NN(CCCCOc4ccc(C5=NNC(=O)CC5)cc4)C(=O)CC3C)ccc(OC)c2n1 (stereo not drawn) [Example 296, 6-(2-Ethyl-8-methoxyquinolin-5-yl)-5-methyl-2-[4-[4-(6-oxo-1,4,5,6-tetrahydropyridazin-3-yl)phenoxy]butyl]-4,5-dihydro-2H-pyridazin-3-one] | – | – | – | 80 to 90 | –
12 | 0.1 to 1 | 1 to 10 | CCc1ccc2c(C3=NN(CCCCOc4ccc(C5=NNC(=O)CC5)cc4OC)C(=O)CC3C)ccc(OC)c2n1 (stereo not drawn) [Example 297, 6-(2-Ethyl-8-methoxyquinolin-5-yl)-5-methyl-2-[4-[2-methoxy-4-(6-oxo-1,4,5,6-tetrahydropyridazin-3-yl)phenoxy]butyl]-4,5-dihydro-2H-pyridazin-3-one] | – | – | – | – | ≥ 90
13 | < 0.1 | < 0.1 | CCc1ccc2c(C3=NN(CCCCOc4ccc(C5=NNC(=O)CC5)cc4F)C(=O)CC3C)ccc(OC)c2n1 (stereo not drawn) [Example 298, 6-(2-Ethyl-8-methoxyquinolin-5-yl)-5-methyl-2-[4-[2-fluoro-4-(6-oxo-1,4,5,6-tetrahydropyridazin-3-yl)phenoxy]butyl]-4,5-dihydro-2H-pyridazin-3-one] | – | – | – | ≥ 90 | –
14 | < 0.1 | 1 to 10 | CCc1ccc2c(C3=NN(CCCCOc4ccc(C5=NNC(=O)C5(C)C)cc4)C(=O)CC3C)ccc(OC)c2n1 (stereo not drawn) [Example 300, 6-(2-Ethyl-8-methoxyquinolin-5-yl)-5-methyl-2-[4-[4-(4,4-dimethyl-5-oxo-4,5-dihydro-1H-pyrazol-3-yl)phenoxy]butyl]-4,5-dihydro-2H-pyridazin-3-one] | – | – | – | – | 70 to 80
15 | < 0.1 | 1 to 10 | CCc1ccc2c(C3=NN(CCOc4ccc(C5=NNC(=O)CC5C)cc4)C(=O)CC3C)ccc(OC)c2n1 (stereo not drawn) [Example 315, 6-(2-Ethyl-8-methoxyquinolin-5-yl)-5-methyl-2-[2-[4-(4-methyl-6-oxo-1,4,5,6-tetrahydropyridazin-3-yl)phenoxy]ethyl]-4,5-dihydro-2H-pyridazin-3-one] | – | – | – | – | 70 to 80
16 | 0.1 to 1 | < 0.1 | COc1ccc(C2=NN(CCCCOc3ccc(C4=NNC(=O)CC4C)cc3)C(=O)CC2C)c2cccnc12 (stereo not drawn) [Example 316, 6-(8-Methoxyquinolin-5-yl)-5-methyl-2-[4-[4-(4-methyl-6-oxo-1,4,5,6-tetrahydropyridazin-3-yl)phenoxy]butyl]-4,5-dihydro-2H-pyridazin-3-one] | – | – | – | ≥ 90 | –
